Assay results from PubChem BioAssay AID2060613 (Molecular Pharmacology Branch, DTP, NCI, 2025).
Values belong to the compound of their own block, whether it stands above or below them.

Test system: 233499-124-R-J3-PDC complex spheroid viability
Experiment: Anticancer human tumor 233499-124-R-J3-PDC patient-derived colon adenocarcinoma cell line growth inhibition [CLK]
Conditions: for IC50: curve of first compound; for viability, T/C: stronger effect = lower value
Method in brief: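 Patient-derived tumor cells grown as complex spheroids with HUVEC endothelial cells and mesenchymal stem cells, treated with drug combinations. Concentrations descend in half-log steps from near clinical Cmax, or from 10 microM if Cmax unknown.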
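Note: spheroids exposed to the drug combinations for seven days.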
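Throughout, for viability, T/C: percent viability relative to DMSO vehicle control wells taken as 100%.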

IC50 (second compound 0.0316 µM): > 0.3 µM
IC50 (second compound 0.1 µM): > 0.3 µM
IC50 (second compound 0.316 µM): > 0.3 µM
IC50 (second compound 1 µM): > 0.3 µM
IC50 (second compound 3.16 µM): > 0.3 µM
IC50 (second compound 10 µM): > 0.3 µM
Structure (SMILES): C=CC(=O)Nc1cc(Nc2nccc(-c3cn(C)c4ccccc34)n2)c(OC)cc1N(C)CCN(C)C + CNC(=O)c1ccc(Nc2nc(OC3CCCC3)c3c(-c4ccc5nc(C)oc5c4)c[nH]c3n2)c(OC)c1
viability, T/C (second compound 0.0316 µM, first compound 0.000949 µM): 70.1%
viability, T/C (second compound 0.0316 µM, first compound 0.003 µM): 97%
viability, T/C (second compound 0.0316 µM, first compound 0.00949 µM): 76.7%
viability, T/C (second compound 0.0316 µM, first compound 0.03 µM): 91%
viability, T/C (second compound 0.0316 µM, first compound 0.0949 µM): 94.9%
viability, T/C (second compound 0.0316 µM, first compound 0.3 µM): 71.8%
viability, T/C (second compound 0.1 µM, first compound 0.000949 µM): 69.8%
viability, T/C (second compound 0.1 µM, first compound 0.003 µM): 80.8%
viability, T/C (second compound 0.1 µM, first compound 0.00949 µM): 77.9%
viability, T/C (second compound 0.1 µM, first compound 0.03 µM): 74.8%
viability, T/C (second compound 0.1 µM, first compound 0.0949 µM): 81.5%
viability, T/C (second compound 0.1 µM, first compound 0.3 µM): 77.1%
viability, T/C (second compound 0.316 µM, first compound 0.000949 µM): 70%
viability, T/C (second compound 0.316 µM, first compound 0.003 µM): 86%
viability, T/C (second compound 0.316 µM, first compound 0.00949 µM): 69.2%
viability, T/C (second compound 0.316 µM, first compound 0.03 µM): 68.4%
viability, T/C (second compound 0.316 µM, first compound 0.0949 µM): 76.6%
viability, T/C (second compound 0.316 µM, first compound 0.3 µM): 78.3%
viability, T/C (second compound 1 µM, first compound 0.000949 µM): 78.7%
viability, T/C (second compound 1 µM, first compound 0.003 µM): 76.2%
viability, T/C (second compound 1 µM, first compound 0.00949 µM): 75.3%
viability, T/C (second compound 1 µM, first compound 0.03 µM): 82.5%
viability, T/C (second compound 1 µM, first compound 0.0949 µM): 69.9%
viability, T/C (second compound 1 µM, first compound 0.3 µM): 73.3%
viability, T/C (second compound 3.16 µM, first compound 0.000949 µM): 55.5%
viability, T/C (second compound 3.16 µM, first compound 0.003 µM): 71.3%
viability, T/C (second compound 3.16 µM, first compound 0.00949 µM): 81.4%
viability, T/C (second compound 3.16 µM, first compound 0.03 µM): 65.8%
viability, T/C (second compound 3.16 µM, first compound 0.0949 µM): 79.7%
viability, T/C (second compound 3.16 µM, first compound 0.3 µM): 67.7%
viability, T/C (second compound 10 µM, first compound 0.000949 µM): 73.5%
viability, T/C (second compound 10 µM, first compound 0.003 µM): 62.2%
viability, T/C (second compound 10 µM, first compound 0.00949 µM): 76.9%
viability, T/C (second compound 10 µM, first compound 0.03 µM): 74.8%
viability, T/C (second compound 10 µM, first compound 0.0949 µM): 69.6%
viability, T/C (second compound 10 µM, first compound 0.3 µM): 61.7%

Structure (SMILES): COc1cccc2c1C(=O)c1c(O)c3c(c(O)c1C2=O)CC(O)(C(=O)CO)CC3OC1CC(N)C(O)C(C)O1 (centres undefined) + CN1CCN(c2cc(C(=O)Nc3cc4cc(-c5cnn(C)c5)ccc4cn3)ccn2)CC1
IC50 (second compound 0.0316 µM): 2.55 µM
IC50 (second compound 0.1 µM): 1.78 µM
IC50 (second compound 0.316 µM): 1.94 µM
IC50 (second compound 1 µM): < 0.0316 µM
IC50 (second compound 3.16 µM): < 0.0316 µM
IC50 (second compound 10 µM): < 0.0316 µM
viability, T/C (second compound 0.0316 µM, first compound 0.0316 µM): 80.4%
viability, T/C (second compound 0.0316 µM, first compound 0.1 µM): 110%
viability, T/C (second compound 0.0316 µM, first compound 0.316 µM): 106%
viability, T/C (second compound 0.0316 µM, first compound 1 µM): 80.9%
viability, T/C (second compound 0.0316 µM, first compound 3.16 µM): 43.2%
viability, T/C (second compound 0.0316 µM, first compound 10 µM): 10.8%
viability, T/C (second compound 0.1 µM, first compound 0.0316 µM): 98%
viability, T/C (second compound 0.1 µM, first compound 0.1 µM): 110%
viability, T/C (second compound 0.1 µM, first compound 0.316 µM): 100%
viability, T/C (second compound 0.1 µM, first compound 1 µM): 68.5%
viability, T/C (second compound 0.1 µM, first compound 3.16 µM): 30.7%
viability, T/C (second compound 0.1 µM, first compound 10 µM): 5.13%
viability, T/C (second compound 0.316 µM, first compound 0.0316 µM): 84.7%
viability, T/C (second compound 0.316 µM, first compound 0.1 µM): 97.6%
viability, T/C (second compound 0.316 µM, first compound 0.316 µM): 66.5%
viability, T/C (second compound 0.316 µM, first compound 1 µM): 61.9%
viability, T/C (second compound 0.316 µM, first compound 3.16 µM): 44.4%
viability, T/C (second compound 0.316 µM, first compound 10 µM): 2.79%
viability, T/C (second compound 1 µM, first compound 0.0316 µM): 0.46%
viability, T/C (second compound 1 µM, first compound 0.1 µM): 0.59%
viability, T/C (second compound 1 µM, first compound 0.316 µM): 10.8%
viability, T/C (second compound 1 µM, first compound 1 µM): 0.33%
viability, T/C (second compound 1 µM, first compound 3.16 µM): 5.03%
viability, T/C (second compound 1 µM, first compound 10 µM): 0.81%
viability, T/C (second compound 3.16 µM, first compound 0.0316 µM): 0.55%
viability, T/C (second compound 3.16 µM, first compound 0.1 µM): 0.57%
viability, T/C (second compound 3.16 µM, first compound 0.316 µM): 0.48%
viability, T/C (second compound 3.16 µM, first compound 1 µM): 0.43%
viability, T/C (second compound 3.16 µM, first compound 3.16 µM): 0.53%
viability, T/C (second compound 3.16 µM, first compound 10 µM): 0.67%
viability, T/C (second compound 10 µM, first compound 0.0316 µM): 0.35%
viability, T/C (second compound 10 µM, first compound 0.1 µM): 0.39%
viability, T/C (second compound 10 µM, first compound 0.316 µM): 0.38%
viability, T/C (second compound 10 µM, first compound 1 µM): 0.34%
viability, T/C (second compound 10 µM, first compound 3.16 µM): 0.3%
viability, T/C (second compound 10 µM, first compound 10 µM): 0.24%
